Measured values taken from patent US20090069302A1 (SMITHKLINE BEECHAM CORPORATION, priority 2006, published 2009).

Target: T1, AXOR109 (Homo sapiens, UniProt Q8TDU6)
T1 construct: expressed in transfected cells; host or cells: melanophore cells, transfected by electroporation
T1 sequence (Q8TDU6 1-330): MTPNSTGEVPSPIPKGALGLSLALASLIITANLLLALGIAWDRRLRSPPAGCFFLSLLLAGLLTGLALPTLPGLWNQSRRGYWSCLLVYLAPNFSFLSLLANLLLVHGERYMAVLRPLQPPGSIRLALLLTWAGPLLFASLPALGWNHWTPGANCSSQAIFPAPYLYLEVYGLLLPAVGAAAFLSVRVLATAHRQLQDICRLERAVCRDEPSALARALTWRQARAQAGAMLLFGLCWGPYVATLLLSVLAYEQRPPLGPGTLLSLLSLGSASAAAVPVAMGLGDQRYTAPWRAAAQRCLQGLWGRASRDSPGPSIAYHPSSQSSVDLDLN
Assay: Human AXOR109/Melanophore Assay
Format: cell-based
Conditions: melanophore assay; for Emax: 1 h; for EC50: AXOR109 transfected melanophores
Procedure: AXOR109 is a Gs-coupled receptor and therefore increases intracellular cAMP leading to melanosome dispersion. Compounds of the present invention were characterized in a melanophore assay as described in Jayawickreme C K, et al., Current Protocols in Pharmacology (2005) 12.9.1-12.9.16. Briefly, melanophore cells are transfected by electroporation with AXOR109 expressing cDNA. Cells are then plated in 384 well clear bottom plates at 8E3 cells per well in 50 μl of conditioned fibroblast media (CFM). Compounds to be tested are serially diluted 3-fold in DMSO and further diluted 1:100 with melanophore assay buffer (MAB)+10 nM Melatonin to yield 11 point concentration response curves. Following 2 hour incubation with MAB+1% DMSO+10 nM Melatonin, initial transmittance is read on a TwisterII/Spectramax plate reader. Compounds are then added to the cells and incubated for 1 hour, and final transmittance is read as before. Results are compared to vehicle (MAB+1% DMSO+10 nM Melatonin) and to a positive control (MAB+1% DMSO+10 nM Melatonin+200 nM alpha-MSH). Data are calculated for each well as follows: 1-(Transmitance-final/Transmitance-initial). Each well result is then normalized to alpha-MSH, the system max control for Gs/Gq coupled receptors using the following equation: (ObjX−Control1)/(Control2−Control1)*100. The percent system max is used to generate the pEC50 using the equation: y=((Vmax*x̂n)/(K̂n+x̂n))+Y2. Acceptable Z-prime values should be >0.4. Compounds of the present invention have a pEC50≧5.0 in the above described assay.

[1] = normalized to alpha-MSH system max

Row | Structure (SMILES) | Emax [1] | EC50 | % Max [1]
1 | COc1ccc(S(=O)(=O)N2CCN(S(=O)(=O)c3ccc(OC)c(OC)c3)CC2)cc1F [Example 1, 1-{[3,4-bis(methyloxy)phenyl]sulfonyl}-4-{[3-fluoro-4-(methyloxy)phenyl]sulfonyl}piperazine] | – | 126 to 1000 nM | –
2 | COc1ccc(S(=O)(=O)N2CCN(S(=O)(=O)c3ccc(-c4cnco4)cc3)CC2)cc1OC [Example 2, 1-{[3,4-bis(methyloxy)phenyl]sulfonyl}-4-{[4-(1,3-oxazol-5-yl)phenyl]sulfonyl}piperazine] | 51 to 75% | 126 to 1000 nM | –
3 | COc1ccc(S(=O)(=O)N2CCN(S(=O)(=O)c3ccc(C)cc3OC)CC2)cc1OC [Example 3, 1-{[3,4-bis(methyloxy)phenyl]sulfonyl}-4-{[4-methyl-2-(methyloxy)phenyl]sulfonyl}piperazine] | 51 to 75% | 1260 to 10000 nM | –
4 | COc1ccc(S(=O)(=O)N2CCN(S(=O)(=O)c3c(C)cccc3Cl)CC2)cc1OC [Example 5, 1-{[3,4-bis(methyloxy)phenyl]sulfonyl}-4-[(2-chloro-6-methylphenyl)sulfonyl]piperazine] | 76 to 100% | 1260 to 10000 nM | –
5 | COc1ccc(S(=O)(=O)N2CCN(S(=O)(=O)c3ccc(OC)c(OC)c3)CC2)cc1 [Example 6, 1-{[3,4-bis(methyloxy)phenyl]sulfonyl}-4-{[4-(methyloxy)phenyl]sulfonyl}piperazine] | 0 to 50% | 126 to 1000 nM | –
6 | COc1ccc(S(=O)(=O)N2CCCN(S(=O)(=O)c3ccc(OC)c(OC)c3)CC2)cc1F [Example 7, 1-{[3,4-bis(methyloxy)phenyl]sulfonyl}-4-{[3-fluoro-4-(methyloxy)phenyl]sulfonyl}hexahydro-1H-1,4-diazepine] | 0 to 50% | 1260 to 10000 nM | –
7 | COc1ccc(S(=O)(=O)N2CCCN(S(=O)(=O)c3ccc4c(c3)OCCO4)CC2)cc1OC [Example 8, 1-{[3,4-bis(methyloxy)phenyl]sulfonyl}-4-(2,3-dihydro-1,4-benzodioxin-6-ylsulfonyl)hexahydro-1H-1,4-diazepine] | 51 to 75% | 1260 to 10000 nM | –
8 | COc1cccc(S(=O)(=O)N(C)CCN(C)S(=O)(=O)c2ccc(OC)c(OC)c2)c1 [Example 10, N-methyl-N-[2-(methyl{[3-(methyloxy)phenyl]sulfonyl}amino)ethyl]-3,4-bis(methyloxy)benzenesulfonamide] | 76 to 100% | 126 to 1000 nM | –
9 | COc1ccc(S(=O)(=O)N(C)CCN(C)S(=O)(=O)c2ccc(OC)c(OC)c2)cc1F [Example 11, N-{2-[{[3,4-bis(methyloxy)phenyl]sulfonyl}(methyl)amino]ethyl}-3-fluoro-N-methyl-4-(methyloxy)benzenesulfonamide] | 0 to 50% | 126 to 1000 nM | –
10 | COc1ccc(S(=O)(=O)N(C)CCN(C)S(=O)(=O)c2ccc3c(c2)OCCN3C)cc1OC [Example 12, N-methyl-N-{2-[{[3,4-bis(methyloxy)phenyl]sulfonyl}(methyl)amino]ethyl}-4-methyl-3,4-dihydro-2H-1,4-benzoxazine-7-sulfonamide] | 76 to 100% | 1260 to 10000 nM | –
11 | COc1ccc(S(=O)(=O)N(C)CCN(C)S(=O)(=O)c2ccc3c(c2)OCCO3)cc1OC [Example 13, N-{2-[{[3,4-bis(methyloxy)phenyl]sulfonyl}(methyl)amino]ethyl}-N-methyl-2,3-dihydro-1,4-benzodioxin-6-sulfonamide] | 51 to 75% | 1260 to 10000 nM | –
12 | COc1ccc(S(=O)(=O)N(C)CCN(C)S(=O)(=O)c2ccc(OC)c(OC)c2)cc1 [Example 15, N-methyl-N-[2-(methyl{[4-(methyloxy)phenyl]sulfonyl}amino)ethyl]-3,4-bis(methyloxy)benzenesulfonamide] | 76 to 100% | 126 to 1000 nM | –
13 | COc1ccc(S(=O)(=O)N2CCC(NS(=O)(=O)c3cccc4cccnc34)C2)cc1OC (centres unmarked) [Example 16, N-(1-{[3,4-bis(methyloxy)phenyl]sulfonyl}-3-pyrrolidinyl)-8-quinolinesulfonamide] | – | 1260 to 10000 nM | –
14 | COc1ccc(S(=O)(=O)NCCNS(=O)(=O)c2ccc(OC)c(OC)c2)cc1OC [Example 26, N,N′-1,2-ethanediylbis[3,4-bis(methyloxy)benzenesulfonamide]] | 76 to 100% | 1260 to 10000 nM | –

More lines, now with the values ahead:

Row | Emax [1] | EC50 | % Max [1] | Structure (SMILES)
15 | 51 to 75% | 1260 to 10000 nM | – | COc1ccc(S(=O)(=O)N2CC[C@H](N(C)S(=O)(=O)c3ccc(OC)c(OC)c3)C2)cc1OC (stereo in doubt) [Example 84]
16 | 51 to 75% | 1260 to 10000 nM | – | COc1ccc(S(=O)(=O)N2CCN(S(=O)(=O)c3ccc(OC)c(OC)c3)CC2)cc1OC [Example 4, 1,4-bis{[3,4-bis(methyloxy)phenyl]sulfonyl}piperazine]
17 | 0 to 50% | 126 to 1000 nM | – | COc1ccc(S(=O)(=O)N2C[C@@H](C)N(S(=O)(=O)c3ccc(OC)c(OC)c3)[C@H](C)C2)cc1OC [Example 17, (2R,6R)-1,4-bis{[3,4-bis(methyloxy)phenyl]sulfonyl}-2,6-dimethylpiperazine]
18 | 51 to 75% | < 126 nM | – | COc1ccc(S(=O)(=O)N2CC(C)N(S(=O)(=O)c3ccc(OC)c(OC)c3)CC2C)cc1OC (centres unmarked) [Example 18, 1,4-bis{[3,4-bis(methyloxy)phenyl]sulfonyl}-2,5-dimethylpiperazine]
19 | 76 to 100% | 1260 to 10000 nM | – | COc1ccc(S(=O)(=O)N2CCN(S(=O)(=O)c3ccc(OC)c(OC)c3)[C@@H](C)C2)cc1OC [Example 19, (2S)-1,4-bis{[3,4-bis(methyloxy)phenyl]sulfonyl}-2-methylpiperazine]
20 | – | 1260 to 10000 nM | ** (“**” = 51% to 75%) | COc1ccc(S(=O)(=O)N2C[C@@H](C)N(S(=O)(=O)c3ccc(OC)c(OC)c3)[C@@H](C)C2)cc1OC [Example 20, 1,4-bis{[3,4-bis(methyloxy)phenyl]sulfonyl}-2,6-cis-dimethylpiperazine]
21 | 51 to 75% | 126 to 1000 nM | – | COc1ccc(S(=O)(=O)N2C[C@H](C)N(S(=O)(=O)c3ccc(OC)c(OC)c3)[C@@H](C)C2)cc1OC [Example 21, (2S,6S)-1,4-bis{[3,4-bis(methyloxy)phenyl]sulfonyl}-2,6-dimethylpiperazine]
22 | 51 to 75% | 1260 to 10000 nM | – | COc1ccc(S(=O)(=O)N2C[C@H](C)N(S(=O)(=O)c3ccc(OC)c(OC)c3)C[C@H]2C)cc1OC [Example 22, trans-1,4-bis{[3,4-bis(methyloxy)phenyl]sulfonyl}-2,5-dimethylpiperazine]
23 | 0 to 50% | 1260 to 10000 nM | – | COc1ccc(S(=O)(=O)N2CCN(S(=O)(=O)c3ccc(OC)c(OC)c3)C2=O)cc1OC [Example 23, 1,3-bis{[3,4-bis(methyloxy)phenyl]sulfonyl}-2-imidazolidinone]
24 | 51 to 75% | 1260 to 10000 nM | – | COc1ccc(S(=O)(=O)N2CCN(S(=O)(=O)c3ccc(OC)c(OC)c3)C(C3CCCCC3)C2)cc1OC (centres unmarked) [Example 24, 1,4-bis{[3,4-bis(methyloxy)phenyl]sulfonyl}-2-cyclohexylpiperazine]
25 | 0 to 50% | 1260 to 10000 nM | – | COc1ccc(S(=O)(=O)NC2CCCCN(S(=O)(=O)c3ccc(OC)c(OC)c3)C2)cc1OC (centres unmarked) [Example 25, N-(1-{[3,4-bis(methyloxy)phenyl]sulfonyl}hexahydro-1H-azepin-3-yl)-3,4-bis(methyloxy)benzenesulfonamide]
26 | 51 to 75% | 1260 to 10000 nM | – | COc1ccc(S(=O)(=O)N2CCN(S(=O)(=O)c3ccc(OC)c(OC)c3)C(=O)C2=O)cc1OC [Example 27, 1,4-bis{[3,4-bis(methyloxy)phenyl]sulfonyl}-2,3-piperazinedione]
